Experimental data as given in the supplement of paper PMC4862054.
Where “and” joins values, the source holds several entries; their conditions need not be identical. Equal entries are not always repeated.

Legend:
[1] = test system: DU-4475; assay: normalised viability (% of control), CellTiter-Blue; higher = more viable cells (about 100 = DMSO control); conditions: incubation time: 72 h
Procedure: (§1)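 DSRT, CellTiter-Blue viability, 72 h incubation. Signal is normalised to DMSO and benzethonium chloride controls. Value is the normalised response at dose 9.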

[2] = test system: CAL-85-1; assay: as above; conditions: incubation time: 72 h
Procedure: as §1

[3] = test system: DU-4475; conditions: 72 h
In short: (§2)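 Two sequential readouts followed a 72 h incubation of breast cancer cell lines with compound at 5 concentrations in 10-fold steps over a compound-specific 10,000-fold range: CellTox Green fluorescence (485/520 nm) for cell death, then CellTiter-Glo luminescence, after 10 min at room temperature, for viability. Each plate was normalised to 0.1 % DMSO and a positive kill control. Dose-response curves were fitted for EC50, censored at the top concentration.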

[4] = test system: HCC1143; conditions: 72 h
In short: as §2

[5] = test system: MFM-223; conditions: 72 h
In short: as §2

[6] = test system: CAL-148; conditions: 72 h
In short: as §2

[7] = test system: HDQ-P1; conditions: 72 h
In short: as §2

[8] = test system: DU-4475; conditions: 72 h; remark: listed apart in the source
In short: (§3)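 Compound dissolved in 5 µl medium was placed in 384-well plates before 20 µl of breast cancer cell suspension was added, and the plates were incubated for 72 h. Cells then received 2.5 µl CellTiter-Blue for 2 h at 37 °C, and fluorescence was read at 560/590 nm. EC50 values come from percent-inhibition dose-response fits that were censored at the highest concentration, with plates normalised to vehicle and a positive kill control and rows with a zero drug sensitivity score excluded.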

[9] = test system: CAL-148; conditions: 72 h; remark: listed apart in the source
In short: as §3

[10] = test system: CAL-85-1; conditions: 72 h
In short: as §3

[11] = test system: CAL-51; conditions: 72 h
In short: as §3

[12] = test system: HDQ-P1; conditions: 72 h; remark: listed apart in the source
In short: as §3

[13] = test system: BT-549; conditions: 72 h
In short: as §3

[14] = test system: HCC1937; conditions: 72 h
In short: as §3

[15] = test system: HCC1143; conditions: 72 h; remark: listed apart in the source
In short: as §3

[16] = test system: MFM-223; conditions: 72 h; remark: listed apart in the source
In short: as §3

[17] = test system: Hs578T; conditions: 72 h
In short: as §3

[18] = test system: SK-BR-3; conditions: 72 h
In short: as §3

[19] = test system: CAL-120; conditions: 72 h
In short: as §3

[20] = test system: MDA-MB-231; conditions: 72 h
In short: as §3

[21] = test system: HCC1599; conditions: 72 h
In short: as §3

[22] = test system: BT-474; conditions: 72 h
In short: as §3

[23] = test system: BT-549; conditions: 72 h; remark: listed apart in the source
Procedure: (§4)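 Drug sensitivity and resistance testing (DSRT) of breast cancer cell lines in 384-well plates, 5 concentrations in 10-fold dilutions over a compound-specific 10,000-fold range. After 72 h, cytotoxicity was read by CellTox Green fluorescence and viability by CellTiter-Glo luminescence (multiplexed), normalised to DMSO and benzethonium chloride controls. EC50 is the inflection point of the fitted dose-response curve (bottom asymptote free, so it can be relative for partial curves) and is censored at the highest tested concentration. Rows with DSS 0 (no meaningful response) were excluded.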

[24] = test system: MFM-223; conditions: 72 h; remark: listed apart in the source
Procedure: as §4

[25] = test system: HCC1599; conditions: 72 h; remark: listed apart in the source
In short: as §2

[26] = test system: MDA-MB-468; conditions: 72 h
In short: as §3

[27] = test system: MDA-MB-436; conditions: 72 h
In short: as §3

[28] = test system: HCC1937; conditions: 72 h; remark: listed apart in the source
Procedure: as §4

[29] = test system: MDA-MB-453; conditions: 72 h
Procedure: as §4

[30] = test system: MDA-MB-231; conditions: 72 h; remark: listed apart in the source
Procedure: as §4

[31] = test system: MDA-MB-468; conditions: 72 h; remark: listed apart in the source
Procedure: as §4

[32] = test system: BT-474; conditions: 72 h; remark: listed apart in the source
Procedure: as §4

[33] = test system: CAL-85-1; conditions: 72 h; remark: listed apart in the source
Procedure: as §4

[34] = test system: MCF-10A; conditions: 72 h
Procedure: as §4

[35] = test system: CAL-51; conditions: 72 h; remark: listed apart in the source
Procedure: as §4

[36] = test system: HDQ-P1; conditions: 72 h; remark: listed apart in the source
Procedure: as §4

[37] = test system: MDA-MB-436; conditions: 72 h; remark: listed apart in the source
Procedure: as §4

[38] = test system: Hs578T; conditions: 72 h; remark: listed apart in the source
Procedure: as §4

SMILES | EC50, CellTiter-Blue viability [13] | EC50, CellTiter-Blue viability [14] | EC50, CellTiter-Blue viability [15] | EC50, CellTiter-Blue viability [18] | EC50, CellTiter-Blue viability [20] | EC50, CellTiter-Blue viability [22] | normalised viability ([1]; 1000 nM) | normalised viability ([2]; 1000 nM) | EC50, CellTiter-Glo [3] | EC50, CellTiter-Glo [5] | EC50, CellTiter-Glo [6] | EC50, CellTiter-Glo [7] | EC50, CellTiter-Blue viability [8] | EC50, CellTiter-Blue viability [9] | EC50, CellTiter-Blue viability [10] | EC50, CellTiter-Blue viability [11] | EC50, CellTiter-Blue viability [12] | EC50, CellTiter-Blue viability [16] | EC50, CellTiter-Blue viability [17] | EC50, CellTiter-Blue viability [19] | further results
CO[C@H]1C[C@@H]2CC[C@@H](C)[C@@](O)(O2)C(=O)C(=O)N2CCCC[C@H]2C(=O)O[C@H]([C@H](C)C[C@@H]2CC[C@@H](OCCO)[C@H](OC)C2)CC(=O)[C@H](C)/C=C(\C)[C@@H](O)[C@@H](OC)C(=O)[C@H](C)C[C@H](C)/C=C/C=C/C=C/1C [Everolimus] | 0.381 nM | 2.95 nM | 0.14 nM | 0.945 nM | 26.9 nM | 0.289 nM | 61.8% and 39.1% | 62% and 43% | 1.24 nM | 0.29 nM | 0.38 nM | 5.68 nM | 2.34 nM | 0.675 nM | 0.219 nM | 1.14 nM | 0.35 nM | 0.27 nM | 0.13 nM | 0.304 nM | EC50, CellTiter-Glo [4]: 0.39 nM; EC50, CellTiter-Blue viability [21]: 11.8 nM; EC50, CellTox Green [23]: > 100 nM; EC50, CellTox Green [24]: 8.31 nM
Cc1cc2c(C(C)C)c(O)c(O)c(C=O)c2c(O)c1-c1c(C)cc2c(C(C)C)c(O)c(O)c(C=O)c2c1O [Gossypol] | – | – | – | – | – | – | – | – | – | – | – | – | – | – | – | – | – | – | – | – | normalised viability ([1]; 100000 nM): 4.97%; normalised viability ([2]; 100000 nM): 3.4%
Cc1ccc(NC(=O)c2ccc(CN3CCN(C)CC3)cc2)cc1Nc1nccc(-c2cccnc2)n1 [Imatinib] | – | – | – | – | – | – | – | – | – | – | – | – | – | – | – | – | – | – | – | – | normalised viability ([1]; 10000 nM): 121% and 110%; normalised viability ([2]; 10000 nM): 87.7% and 85.9%; EC50, CellTox Green [29]: 2820 nM; EC50, CellTox Green [38]: > 10000 nM
COc1ccccc1S(=O)(=O)Nc1ccc2c(c1)CN(C)C(=O)N2 [PFI-1] | – | – | – | – | – | – | – | – | 2670 nM | 3190 nM | – | – | – | – | – | – | – | – | – | – | EC50, CellTox Green [33]: 9560 nM

The next lines start with results.

EC50, CellTiter-Blue viability [13] | EC50, CellTiter-Blue viability [14] | EC50, CellTiter-Blue viability [15] | EC50, CellTiter-Blue viability [18] | EC50, CellTiter-Blue viability [20] | EC50, CellTiter-Blue viability [22] | SMILES | normalised viability ([1]; 1000 nM) | normalised viability ([2]; 1000 nM) | EC50, CellTiter-Glo [3] | EC50, CellTiter-Glo [5] | EC50, CellTiter-Glo [6] | EC50, CellTiter-Glo [7] | EC50, CellTiter-Blue viability [8] | EC50, CellTiter-Blue viability [9] | EC50, CellTiter-Blue viability [10] | EC50, CellTiter-Blue viability [11] | EC50, CellTiter-Blue viability [12] | EC50, CellTiter-Blue viability [16] | EC50, CellTiter-Blue viability [17] | EC50, CellTiter-Blue viability [19] | further results
2220 nM | 2960 nM | – | 3870 nM | 2140 nM | 3940 nM | CCCCCCCCc1ccc(CCC(N)(CO)CO)cc1 [Fingolimod] | – | – | – | 6920 nM | 9190 nM | 6870 nM | – | – | 5290 nM | – | 5350 nM | 4430 nM | 3440 nM | 2380 nM | normalised viability ([1]; 10000 nM): 136%; normalised viability ([2]; 10000 nM): 4.87%; EC50, CellTiter-Glo [25]: 9540 nM; EC50, CellTiter-Blue viability [26]: 3550 nM; EC50, CellTiter-Blue viability [27]: 1780 nM; EC50, CellTox Green [23]: 8700 nM; EC50, CellTox Green [28]: 320 nM; EC50, CellTox Green [29]: 7630 nM; EC50, CellTox Green [24]: > 10000 nM; EC50, CellTox Green [30]: 2650 nM; EC50, CellTox Green [31]: 2510 nM; EC50, CellTox Green [32]: 3460 nM; EC50, CellTox Green [33]: 2040 nM; EC50, CellTox Green [34]: 1110 nM; EC50, CellTox Green [35]: 7860 nM; EC50, CellTox Green [36]: 7660 nM; EC50, CellTox Green [37]: 8120 nM
12.8 nM | 6.87 nM | 15.2 nM | 26.4 nM | 12.9 nM | 21.7 nM | Cn1c(=O)n(-c2ccc(C(C)(C)C#N)cc2)c2c3cc(-c4cnc5ccccc5c4)ccc3ncc21 [NVP-BEZ235] | 5.52% | 27.7% | – | – | – | – | 54 nM | 17.6 nM | 12.6 nM | 10.1 nM | 10.8 nM | 7.73 nM | 8.08 nM | 10.1 nM | EC50, CellTiter-Blue viability [26]: 27.1 nM; EC50, CellTiter-Blue viability [21]: 20.8 nM; EC50, CellTiter-Blue viability [27]: 52.5 nM
